From US8202904B2, “α-cyano-4-fluoro-3-phenoxybenzyl meta-halo pyrethrate, a process for preparing the same and the uses thereof” (East China Normal University, priority 2007, dated 2012)
Values after ≈ are worked out from the molar mass of the structure shown. Like-named read-outs stand apart in the source and are kept apart here.

Legend:
[1] = Acute toxicity on rats by oral administration; details: rat, in vivo
Blattela germanica = test: Striking down effect on cockroaches, liquid film contact method; type: in vivo; set-up: unit not given here; details: Blattela germanica male adults, film at 54 mg/m^2, 22±1° C.
Method: The striking down effect on Blattela germanica was tested using Compound 2 and 3, which are representative examples of the compound of formula (I) of the present invention, Compound 9 as a control example. Blattela germanica, an in-house cultured sensitive strain, male adult insects were used. Test temperature: 22±1° C., test method: liquid film contact method. A liquor in acetone was evenly coated at the amount of 54 mg/m^2 on the inner wall of a wild mouth bottle to form a film. After the film was dry, 10 adult insects were put into each bottle, and the striking down time and striking down number were observed, and each treatment was done in triplicate.

[2] = tested on: Tetrangychus cinnabarinus; test: Killing effect on Tetrangychus cinnabarinus, immersion; type: in vivo; details: after 24 hours
Method: The killing effect on acarids was tested using Compound 2 and 3, which are representative examples of the compound of formula (I) of the present invention, Compound 9 as a control example. Tetrangychus cinnabarinus, test temperature: 26±1° C. humidity: 70±10%; test method: immersion; adult insects together with horsebean leaves were immersed in a liquor in dimethyl sulfoxide for 5 seconds, after which the leaves were inserted into a small bottle. Each treatment was done in triplicate. The number of the killed insects was checked after 24 hours to calculate the mortality.

[3] = Stability test, ultraviolet lamp irradiation, gas chromatography analysis; type: physicochemical; details: 30 min, 3 mM
Method: 0.15 mmol of the compound of Preparation Example 2 (cis-α-cyano-3-phenoxy-4-fluoro-benzyl-2,2-dimethyl-3-(2-chlorovinyl)cyclopropane carboxylate) and 0.15 mmol of the corresponding dichloride compound (cis-α-cyano-3-phenoxy-4-fluoro-benzyl-2,2-dimethyl-3-(2,2-dichlorovinyl)cyclopropane carboxylate) were added to two vessels separately, to which 50 ml of cyclohexane were added separately. They were irradiated by a 500 W ultraviolet lamp for 30 min respectively. Then to each of the vessels were added 0.15 mmol of n-hexane as an internal standard for gas chromatography analysis. […] The photodegradation rate of the former is 1.9 times of that of the latter. That is to say, if the same amounts were used, the residue of the former in the environment is lower than that of the latter.

Aphis medicaginis kock = test: Killing effect on aphids, immersion; type: in vivo
Method: The killing effect on aphids was tested using Compound 2 and 3, which are representative examples of the compound of formula (I) of the present invention, Compound 9 as a control example. Aphis medicaginis kock; test temperature: 26±1° C., humidity: 70±10%; test method: immersion; adult insects together with bean sprouts were immersed in a liquor in dimethyl sulfoxide for 5 seconds, after which the bean sprouts were heeled in a solid support. Each treatment was done in triplicate. The number of the killed insects was checked after 24 hours to calculate the mortality.

Musca domestica = test: Striking down effect on Musca domestica, liquid film contact method; type: in vivo; set-up: unit not given here; details: Musca domestica adults, film from 1 ml of 0.1% liquor in acetone in 500 ml conical flask
Method: The striking down effect on Musca domestica was tested using Compounds 2 and 3, which are representative examples of the compound of formula (I) of the present invention, Compound 9 as a control example. Musca domestica, an in-house cultured sensitive strain, the adult insects in eclosion for 3-5 days were used, and the male and female insects are half and half. Test temperature: 26±1° C., humidity: 70±10%, test method: liquid film contact method. 1 ml of 0.1% liquor in acetone was evenly coated on a 500 ml conical flask to form a film. After the film was dry, 20˜25 adult insects were put into the flask, and the striking down time and striking down number were observed, and each treatment was done in triplicate.

Mythimna separata = test: Killing effect on Mythimna separata, dipped corn leaves fed to larvae; type: in vivo
Method: The killing effect on Mythimna separata was tested using Compounds 2 and 3, which are representative examples of the compound of formula (I) of the present invention, Compound 9, polyfluorobenzyl meta-halo pyrethrate, which has the highest insecticidal activity to Mythimna separata as a control example.
Mythimna separata: test temperature: 26±1° C., humidity: 70±10%; the corn leaves was immersed, and then were taken out after they were dipped in a liquor in dimethyl sulfoxide for 5 seconds. The liquor was dried in the shade and the corn leaves were cut away to feed larvae at the beginning of the third instar. Each treatment was done in triplicate. The number of killed insects was counted after 48 hours to calculate the mortality.

[4] = tested on: Culex pipiens pallens fourth instar wiggler; test: Killing effect on wiggler, WHO immersing method, LC50; type: in vivo; details: for Relative toxicity: from wiggler LC50, Cypermethrin = 100
Method: The following pyrethrates were tested as representatives according to the method recommended by the World Health Organization (WHO) (Zongbing ZHANG, the assay of toxicity of insecticides, the Science Press, 1988), the commonly used testing breed, Culex pipiens pallens fourth instar wiggler is used as a subject for biological assay, test temperature: 26±1° C., humidity: 70±10%; immersing method: a solution of a certain amount the compound to be tested in acetone was mixed evenly with pure water in the gradually decreasing concentration of 500, 250, 100, 50, 25, 12.5, 6.25, 3.125, 1, 0.5, 0.25, 0.1, 0.05, 0.025, 0.01, 0.005, 0.0025, 0.0001 mg/L, and the mortality of wiggler after 24 hours was calculated and LC50 was calculated to preliminarily evaluate the insecticidal activity. The results were shown in Table I. Compound 1-5 are representative examples of the compound of formula (I) of the present invention: the compounds involved in preparation Example 1-5 were prepared;
At the same time, their relative toxicities were compared with those of Cypermethrin, and Deltamethrin.

[5] = Aphis medicaginis, 24 h, read-out: The average mortality
[6] = 48 h, read-out: The average mortality

CC1(C)[C@H](C=CCl)[C@@H]1C(=O)OC(C#N)c1ccc(F)c(Oc2ccccc2)c1 (relative stereo) [Compound 2, cis-α-cyano-3-phenoxy-4-fluoro-benzyl-2,2-dimethyl-3-(2-chlorovinyl)cyclopropane carboxylate]
LD50 ([1]; female): 158 mg/kg | LD50 ([1]; male): 116 mg/kg | KT50 (Blattela germanica): 5.12 | The average mortality ([2]; 1 mg/L): 0% | The average mortality ([2]; 5 mg/L): 11.9% | The average mortality ([2]; 50 mg/L): 91.1% | The average mortality ([2]; 500 mg/L): 100% | degraded by light [3]: 30% | photodegradation rate relative to the corresponding dichloride compound [3]: 1.9 times | mortality at 0.25 ppm (Aphis medicaginis kock; [5]): 0% | mortality at 0.5 ppm (Aphis medicaginis kock; [5]): 28.8% | mortality at 1 ppm (Aphis medicaginis kock; [5]): 84.3% | mortality at 5 ppm (Aphis medicaginis kock; [5]): 89.5% | mortality at 50 ppm (Aphis medicaginis kock; [5]): 100% | mortality at 500 ppm (Aphis medicaginis kock; [5]): 100% | KT50 (Musca domestica): 3.49 | mortality at 0.25 ppm (Mythimna separata; [6]): 0% | mortality at 0.5 ppm (Mythimna separata; [6]): 33.3% | mortality at 1 ppm (Mythimna separata; [6]): 66.7% | mortality at 5 ppm (Mythimna separata; [6]): 100% | mortality at 50 ppm (Mythimna separata; [6]): 100% | mortality at 500 ppm (Mythimna separata; [6]): 100% | relative toxicity versus cypermethrin ([4]; Culex pipiens pallen larvae): 22.55 times | relative toxicity versus deltamethrin ([4]; Culex pipiens pallen larvae): 2.55 times | relative toxicity versus the compounds in comparative examples 1-6 ([4]; Culex pipiens pallen larvae): 125-1128 times | LC50 ([4]; Culex pipiens, 24 h): 0.47 ng/mL (≈ 0.00118 µM) | relative toxicity versus deltamethrin, estimated for the single chiral isomer ([4]; extrapolated 4*2.55 from the racemate of four chiral isomers): 10 times | Relative toxicity [4]: 2255

CC1(C)[C@@H](C=CCl)[C@@H]1C(=O)OC(C#N)c1ccc(F)c(Oc2ccccc2)c1 (relative stereo) [Compound 3, Trans-α-cyano-3-phenoxy-4-fluoro-benzyl-2,2-dimethyl-3-(2-chlorovinyl)cyclopropane carboxylate]
KT50 (Blattela germanica): 8.14 | The average mortality ([2]; 1 mg/L): 0% | The average mortality ([2]; 5 mg/L): 0% | The average mortality ([2]; 50 mg/L): 7.8% | The average mortality ([2]; 500 mg/L): 100% | mortality at 0.5 ppm (Aphis medicaginis kock; Aphis medicaginis, aphids, 0.5 ppm, after 24 hours, read-out: The average mortality): 0% | mortality at 1 ppm (Aphis medicaginis kock; Aphis medicaginis, aphids, 1 ppm, after 24 hours, read-out: The average mortality): 66.3% | mortality at 5 ppm (Aphis medicaginis kock; Aphis medicaginis, aphids, 5 ppm, after 24 hours, read-out: The average mortality): 83.7% | mortality at 50 ppm (Aphis medicaginis kock; Aphis medicaginis, aphids, 50 ppm, after 24 hours, read-out: The average mortality): 100% | mortality at 500 ppm (Aphis medicaginis kock; Aphis medicaginis, aphids, 500 ppm, after 24 hours, read-out: The average mortality): 100% | KT50 (Musca domestica): 5.80 | mortality at 0.5 ppm (Mythimna separata; 0.5 ppm, after 48 hours, read-out: The average mortality): 0% | mortality at 1 ppm (Mythimna separata; 1 ppm, after 48 hours, read-out: The average mortality): 0% | mortality at 5 ppm (Mythimna separata; 5 ppm, after 48 hours, read-out: The average mortality): 100% | mortality at 50 ppm (Mythimna separata; 50 ppm, after 48 hours, read-out: The average mortality): 100% | mortality at 500 ppm (Mythimna separata; 500 ppm, after 48 hours, read-out: The average mortality): 100% | LC50 ([4]; Culex pipiens pallens fourth instar wiggler, immersing method, mortality after 24 hours, 26±1° C., read-out: LC50): 5.5 ng/mL (≈ 0.0138 µM) | Relative toxicity [4]: 193

CC1(C)[C@@H](C=CCl)[C@@H]1C(=O)OCc1c(F)c(F)cc(F)c1F (relative stereo) [Compound 9, trans-2,3,5,6-tetrafluoro-4-benzyl-3-(2-chlorovinyl)-2,2-dimethylcyclopropane carboxylat, reference compound]
KT50 (Blattela germanica): 12.0 | The average mortality ([2]; 1 mg/L): 0% | The average mortality ([2]; 5 mg/L): 0% | The average mortality ([2]; 50 mg/L): 0% | The average mortality ([2]; 500 mg/L): 0% | The average mortality (Aphis medicaginis kock; aphids, 0.5 ppm, after 24 hours): 0% | The average mortality (Aphis medicaginis kock; aphids, 1 ppm, after 24 hours): 0% | The average mortality (Aphis medicaginis kock; aphids, 5 ppm, after 24 hours): 0% | The average mortality (Aphis medicaginis kock; aphids, 50 ppm, after 24 hours): 18.8% | The average mortality (Aphis medicaginis kock; aphids, 500 ppm, after 24 hours): 100% | KT50 (Musca domestica): 9.51 | The average mortality (Mythimna separata; 0.5 ppm, after 48 hours): 0% | The average mortality (Mythimna separata; 1 ppm, after 48 hours): 0% | The average mortality (Mythimna separata; 5 ppm, after 48 hours): 0% | The average mortality (Mythimna separata; 50 ppm, after 48 hours): 100% | The average mortality (Mythimna separata; 500 ppm, after 48 hours): 100% | LC50 ([4]; Culex pipiens pallens fourth instar wiggler, immersing method, mortality after 24 hours, 26±1° C.): 249.2 ng/mL (≈ 0.74 µM) | Relative toxicity [4]: 4
